Activity calls are given as the source filed them.
How the values were obtained:
Vero = test: West Nile virus antiviral activity, cell-based, CPE readout (AID 1621); assay type: functional; settings: Chlorocebus sabaeus
[1] = target: T1, Alkaline phosphatase, tissue-nonspecific isozyme (Homo sapiens, UniProt P05186)
T1 sequence (P05186 whole entry): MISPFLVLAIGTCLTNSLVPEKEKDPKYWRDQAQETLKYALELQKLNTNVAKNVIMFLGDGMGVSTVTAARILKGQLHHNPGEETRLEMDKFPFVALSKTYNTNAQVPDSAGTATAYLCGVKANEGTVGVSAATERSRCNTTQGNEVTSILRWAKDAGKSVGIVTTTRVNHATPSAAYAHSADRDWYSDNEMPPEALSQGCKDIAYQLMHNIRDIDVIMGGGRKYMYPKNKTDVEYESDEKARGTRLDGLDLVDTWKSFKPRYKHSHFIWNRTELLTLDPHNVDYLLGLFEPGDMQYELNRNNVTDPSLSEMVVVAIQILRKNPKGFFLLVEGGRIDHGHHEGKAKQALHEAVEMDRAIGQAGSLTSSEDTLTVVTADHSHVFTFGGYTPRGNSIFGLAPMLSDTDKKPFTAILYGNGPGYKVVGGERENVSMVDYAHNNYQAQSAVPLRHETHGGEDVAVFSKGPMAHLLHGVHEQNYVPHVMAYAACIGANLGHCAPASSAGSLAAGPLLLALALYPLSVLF

[2] = A Cell Based Secondary Assay To Explore Cytotoxicity of Compounds that Sensitize Mycobacterium Tuberculosis to Beta-Lactam Antibiotics.; assay type: functional
[3] = target: Peroxisome proliferator-activated receptor gamma/Nuclear receptor coactivator 2 (Homo sapiens, UniProt P37231); assay type: functional;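 also: agonist potency for raising coactivator recruitment to the receptor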
[4] = target: Peroxisome proliferator-activated receptor gamma/Nuclear receptor coactivator 3 (Homo sapiens, UniProt P37231); assay type: functional;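 also: agonist potency for raising coactivator recruitment to the receptor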
[5] = target: Peroxisome proliferator-activated receptor gamma/Nuclear receptor coactivator 1 (Homo sapiens, UniProt P37231); assay type: functional;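 also: agonist potency as compounds enhance coactivator SRC-1 recruitment to PPARgamma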
[6] = target: T2, Neuropeptide Y receptor type 2 (Homo sapiens, UniProt P49146); assay type: functional, cell-based;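 also: HEK293 cells expressing the receptor and a CNG channel; stimulus was NPY near EC95 followed by isoproterenol to raise cAMP; antagonist potency measured as restoring cAMP signal that NPY suppresses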
T2 sequence (P49146 whole entry): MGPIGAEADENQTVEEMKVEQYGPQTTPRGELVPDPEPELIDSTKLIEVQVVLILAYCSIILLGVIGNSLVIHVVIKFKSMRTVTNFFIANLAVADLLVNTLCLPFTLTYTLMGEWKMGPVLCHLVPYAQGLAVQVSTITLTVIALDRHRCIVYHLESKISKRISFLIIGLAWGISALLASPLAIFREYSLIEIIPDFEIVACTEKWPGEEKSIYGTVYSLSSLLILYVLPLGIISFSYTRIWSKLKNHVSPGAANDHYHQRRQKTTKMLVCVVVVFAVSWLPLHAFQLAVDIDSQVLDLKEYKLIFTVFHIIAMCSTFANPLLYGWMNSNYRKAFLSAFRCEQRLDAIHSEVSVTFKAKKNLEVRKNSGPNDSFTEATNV

[7] = target: T3, Neuropeptide Y receptor type 1 (Homo sapiens, UniProt P25929); assay type: functional;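 also: HEK293 cells with a CNG channel challenged with NPY then isoproterenol; potency as antagonist that reverses NPY suppression of cAMP signal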
T3 sequence (P25929 whole entry): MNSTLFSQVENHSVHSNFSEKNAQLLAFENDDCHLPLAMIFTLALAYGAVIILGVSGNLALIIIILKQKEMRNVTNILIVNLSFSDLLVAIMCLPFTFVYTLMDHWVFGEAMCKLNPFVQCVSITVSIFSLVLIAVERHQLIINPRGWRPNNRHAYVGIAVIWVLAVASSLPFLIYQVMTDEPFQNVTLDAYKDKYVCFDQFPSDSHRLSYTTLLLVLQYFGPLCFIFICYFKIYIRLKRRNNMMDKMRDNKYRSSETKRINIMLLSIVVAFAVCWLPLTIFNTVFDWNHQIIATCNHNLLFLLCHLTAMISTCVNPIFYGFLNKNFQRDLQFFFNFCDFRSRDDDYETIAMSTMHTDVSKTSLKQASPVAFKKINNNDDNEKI

[8] = target: Melanin-concentrating hormone receptor 1 (Homo sapiens, UniProt Q99705); test: Fluorescence-based counterscreen for antagonists of the G-protein coupled receptor 7 (GPR7): cell-based high throughput dose response assay to identify antagonists of the melanin-concentrating hormone receptor 1 (MCHR1).; assay type: functional
NS3 = NS3 (Hepatitis C virus, UniProt A3EZJ3); test: PubChem AID 2173; parameters: species or system Hepacivirus hominis
HT-1080 = test: cytotoxicity in HT1080 fibrosarcoma cells, cell-based, fluorescence readout (AID 620); assay type: functional; settings: Homo sapiens
[9] = target: Luciferin 4-monooxygenase (Photinus pyralis, UniProt P08659); test: Counter Screen for Luciferase-based Assay Positives. [Related pubchem assays: 620, 618, 411 ]
[10] = target: T4, Tyrosine-protein phosphatase non-receptor type 7 (Homo sapiens, UniProt P35236); assay type: functional
T4 sequence (P35236 whole entry): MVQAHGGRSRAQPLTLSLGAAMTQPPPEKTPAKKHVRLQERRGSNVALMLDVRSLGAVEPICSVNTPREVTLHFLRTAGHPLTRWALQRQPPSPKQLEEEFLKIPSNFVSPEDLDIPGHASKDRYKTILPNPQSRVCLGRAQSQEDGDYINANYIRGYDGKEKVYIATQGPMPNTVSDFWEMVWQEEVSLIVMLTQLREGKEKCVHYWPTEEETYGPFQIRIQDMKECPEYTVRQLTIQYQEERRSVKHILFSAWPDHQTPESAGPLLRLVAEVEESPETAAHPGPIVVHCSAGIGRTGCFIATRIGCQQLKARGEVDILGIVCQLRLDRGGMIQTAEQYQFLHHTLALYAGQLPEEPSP

[11] = target: Heat shock 70 kDa protein 1A (Homo sapiens, UniProt P0DMV8); test: Hsp70 inhibitors, SAR follow-up, biochemical, fluorescence polarization (AID 1072)
[12] = target: T5, Dual specificity protein phosphatase 6 (Rattus norvegicus, UniProt Q64346); assay type: functional
T5 sequence (Q64346 whole entry): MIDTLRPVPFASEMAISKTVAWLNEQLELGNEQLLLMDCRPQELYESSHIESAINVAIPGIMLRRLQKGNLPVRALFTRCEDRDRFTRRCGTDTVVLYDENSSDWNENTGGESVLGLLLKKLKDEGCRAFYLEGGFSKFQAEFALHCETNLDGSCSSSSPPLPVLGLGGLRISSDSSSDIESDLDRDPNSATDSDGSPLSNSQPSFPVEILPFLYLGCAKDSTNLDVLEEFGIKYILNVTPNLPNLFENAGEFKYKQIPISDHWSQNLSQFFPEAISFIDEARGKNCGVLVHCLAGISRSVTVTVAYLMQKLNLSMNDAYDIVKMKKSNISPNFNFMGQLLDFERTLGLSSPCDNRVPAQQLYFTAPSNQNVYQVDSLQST

[13] = target: Heat shock cognate 71 kDa protein (Homo sapiens, UniProt P11142); test: In Vitro Hsc70 Dose Response Fluorescence Polarization Assay. [Related pubchem assays: 1072 ]
[14] = target: T5, Dual specificity protein phosphatase 6
[15] = target: Glyceraldehyde-3-phosphate dehydrogenase (Homo sapiens, UniProt P04406)
[16] = inhibitors of Bluetongue virus cytopathic effect, confirmation, arbovirus, BSR cells (AID 1250); assay type: functional;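 also: protection from viral cytopathic effect measured as cell viability by ATP luminescence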
[17] = target: T1, Alkaline phosphatase, tissue-nonspecific isozyme; test: human TNAP enzyme inhibitors, SAR follow-up, biochemical, luminescent, dose response (AID 1056)
[18] = target: Photoreceptor-specific nuclear receptor (Homo sapiens, UniProt Q9Y5X4); assay type: functional;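 also: potency for compounds that break the NR2E3 corepressor complex and count as activators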
[19] = target: Peroxisome proliferator-activated receptor gamma/Nuclear receptor corepressor 2 (Homo sapiens, UniProt P37231+Q9Y618); assay type: functional
[20] = target: G-protein coupled receptor 55 (Homo sapiens, UniProt Q9Y2T6); test: GPR55 agonists via beta-arrestin recruitment, primary screen, imaging, U2OS cells, beta-arrestin-GFP redistribution (AID 1961); assay type: functional
[21] = target: Heat shock protein HSP 90-alpha (Homo sapiens, UniProt P07900); assay type: functional, organism-based
[22] = growth suppression of beta-catenin-knockout colon cells, dose response, cell-based, HCT116, human colon tumor (AID 1045); assay type: functional;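 also: HCT116 colon tumor cells with beta catenin knocked out; cells exposed to compound for 60 hours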
[23] = growth suppression of PTEN-null colon cells, dose response, cell-based, HCT116 PTEN knockout (AID 1047); assay type: functional;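 also: HCT116 colon tumor cells with PTEN knocked out; cells exposed to compound for 60 hours before readout; potency for loss of cell viability measured by luminescence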
[24] = target: Protein-tyrosine kinase 2-beta (Homo sapiens, UniProt Q14289);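 also: potency of inhibitors of PYK2 kinase phosphorylation of poly-GT substrate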
[25] = target: Mitogen-activated protein kinase 10 (Homo sapiens, UniProt P53779); test: Dose response biochemical screening assay for inhibitors of c-Jun N-Terminal Kinase 3 (JNK3). [Related pubchem assays: 746 ]
[26] = target: T6, Ubiquitin-conjugating enzyme E2 N (Homo sapiens, UniProt P61088); assay type: functional;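 also: Dose-response confirmation in a TR-FRET assay detecting UBC13-driven polyubiquitin chain formation, inhibition measured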
T6 sequence (P61088 whole entry): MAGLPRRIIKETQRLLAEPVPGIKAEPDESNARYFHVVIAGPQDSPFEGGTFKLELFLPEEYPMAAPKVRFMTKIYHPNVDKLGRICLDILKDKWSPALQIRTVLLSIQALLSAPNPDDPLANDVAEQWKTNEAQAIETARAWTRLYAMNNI

Sequence of Luciferin 4-monooxygenase (P08659 whole entry): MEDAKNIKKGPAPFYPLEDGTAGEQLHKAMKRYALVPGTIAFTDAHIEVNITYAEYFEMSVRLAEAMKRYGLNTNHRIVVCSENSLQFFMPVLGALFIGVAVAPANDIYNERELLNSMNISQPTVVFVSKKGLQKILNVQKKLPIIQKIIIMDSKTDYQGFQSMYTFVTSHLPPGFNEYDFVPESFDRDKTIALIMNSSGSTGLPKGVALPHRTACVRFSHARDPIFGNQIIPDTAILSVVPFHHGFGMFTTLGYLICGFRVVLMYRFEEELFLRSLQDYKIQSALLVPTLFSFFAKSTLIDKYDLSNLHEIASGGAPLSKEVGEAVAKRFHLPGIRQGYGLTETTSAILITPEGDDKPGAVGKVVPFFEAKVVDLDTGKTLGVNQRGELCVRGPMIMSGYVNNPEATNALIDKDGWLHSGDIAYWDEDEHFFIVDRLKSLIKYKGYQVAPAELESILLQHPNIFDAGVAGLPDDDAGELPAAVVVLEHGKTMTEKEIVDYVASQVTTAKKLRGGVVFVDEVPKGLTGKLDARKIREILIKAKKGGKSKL
Sequence of Peroxisome proliferator-activated receptor gamma/Nuclear receptor coactivator 1 (P37231 whole entry): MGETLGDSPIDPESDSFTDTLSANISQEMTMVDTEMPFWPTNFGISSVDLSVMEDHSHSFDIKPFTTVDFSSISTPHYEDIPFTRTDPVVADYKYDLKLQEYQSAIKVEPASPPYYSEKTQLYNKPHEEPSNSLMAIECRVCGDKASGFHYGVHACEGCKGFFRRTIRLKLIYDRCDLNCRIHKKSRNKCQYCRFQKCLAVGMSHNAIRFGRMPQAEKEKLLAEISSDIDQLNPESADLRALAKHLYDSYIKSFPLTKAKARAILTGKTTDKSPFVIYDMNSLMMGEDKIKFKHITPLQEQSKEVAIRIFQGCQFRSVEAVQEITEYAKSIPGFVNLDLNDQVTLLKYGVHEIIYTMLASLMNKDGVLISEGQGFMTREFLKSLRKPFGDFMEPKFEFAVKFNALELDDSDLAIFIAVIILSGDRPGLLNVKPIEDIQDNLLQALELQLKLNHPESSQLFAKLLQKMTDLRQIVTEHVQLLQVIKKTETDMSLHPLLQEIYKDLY
Sequence of Peroxisome proliferator-activated receptor gamma/Nuclear receptor coactivator 1 (Q15788 whole entry, further chain): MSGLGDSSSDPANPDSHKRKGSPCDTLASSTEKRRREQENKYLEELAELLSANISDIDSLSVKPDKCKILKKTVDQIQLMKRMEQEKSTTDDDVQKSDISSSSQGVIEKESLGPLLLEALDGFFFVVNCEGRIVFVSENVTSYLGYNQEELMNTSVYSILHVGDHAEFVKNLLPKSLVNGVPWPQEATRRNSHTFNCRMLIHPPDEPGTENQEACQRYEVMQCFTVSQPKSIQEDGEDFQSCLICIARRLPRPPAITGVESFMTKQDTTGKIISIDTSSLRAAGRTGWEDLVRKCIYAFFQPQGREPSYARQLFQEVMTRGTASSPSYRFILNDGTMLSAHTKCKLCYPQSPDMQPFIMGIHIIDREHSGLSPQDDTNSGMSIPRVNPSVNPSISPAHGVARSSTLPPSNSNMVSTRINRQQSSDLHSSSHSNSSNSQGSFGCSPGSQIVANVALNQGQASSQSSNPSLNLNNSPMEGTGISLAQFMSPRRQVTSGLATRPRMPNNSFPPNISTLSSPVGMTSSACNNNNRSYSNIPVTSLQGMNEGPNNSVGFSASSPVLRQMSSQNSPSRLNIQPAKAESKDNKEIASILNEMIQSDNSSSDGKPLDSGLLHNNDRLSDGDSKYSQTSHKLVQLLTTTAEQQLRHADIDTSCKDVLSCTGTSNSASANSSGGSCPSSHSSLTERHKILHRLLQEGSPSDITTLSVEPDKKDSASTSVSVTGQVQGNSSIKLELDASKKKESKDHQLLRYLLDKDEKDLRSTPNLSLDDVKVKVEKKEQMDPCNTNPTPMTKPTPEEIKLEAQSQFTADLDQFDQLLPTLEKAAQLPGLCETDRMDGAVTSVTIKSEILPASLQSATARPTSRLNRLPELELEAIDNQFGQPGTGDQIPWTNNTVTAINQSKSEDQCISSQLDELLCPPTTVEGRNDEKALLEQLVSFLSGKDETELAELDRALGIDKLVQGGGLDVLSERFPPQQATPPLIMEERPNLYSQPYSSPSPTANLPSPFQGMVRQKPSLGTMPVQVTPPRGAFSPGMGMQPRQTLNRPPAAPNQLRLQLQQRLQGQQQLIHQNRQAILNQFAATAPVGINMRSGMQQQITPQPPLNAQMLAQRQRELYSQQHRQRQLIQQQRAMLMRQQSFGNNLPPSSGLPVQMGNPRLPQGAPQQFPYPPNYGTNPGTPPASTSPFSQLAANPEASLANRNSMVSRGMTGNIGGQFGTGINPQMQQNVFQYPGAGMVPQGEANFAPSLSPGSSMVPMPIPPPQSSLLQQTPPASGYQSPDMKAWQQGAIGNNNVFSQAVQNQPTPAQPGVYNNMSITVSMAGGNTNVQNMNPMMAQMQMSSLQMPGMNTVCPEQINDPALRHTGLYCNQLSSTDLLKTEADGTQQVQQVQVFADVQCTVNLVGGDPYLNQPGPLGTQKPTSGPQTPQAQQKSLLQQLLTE
Sequence of Peroxisome proliferator-activated receptor gamma/Nuclear receptor coactivator 3 (P37231 whole entry): as the sequence (P37231 whole entry) above
Sequence of Peroxisome proliferator-activated receptor gamma/Nuclear receptor coactivator 3 (Q9Y6Q9 whole entry, further chain): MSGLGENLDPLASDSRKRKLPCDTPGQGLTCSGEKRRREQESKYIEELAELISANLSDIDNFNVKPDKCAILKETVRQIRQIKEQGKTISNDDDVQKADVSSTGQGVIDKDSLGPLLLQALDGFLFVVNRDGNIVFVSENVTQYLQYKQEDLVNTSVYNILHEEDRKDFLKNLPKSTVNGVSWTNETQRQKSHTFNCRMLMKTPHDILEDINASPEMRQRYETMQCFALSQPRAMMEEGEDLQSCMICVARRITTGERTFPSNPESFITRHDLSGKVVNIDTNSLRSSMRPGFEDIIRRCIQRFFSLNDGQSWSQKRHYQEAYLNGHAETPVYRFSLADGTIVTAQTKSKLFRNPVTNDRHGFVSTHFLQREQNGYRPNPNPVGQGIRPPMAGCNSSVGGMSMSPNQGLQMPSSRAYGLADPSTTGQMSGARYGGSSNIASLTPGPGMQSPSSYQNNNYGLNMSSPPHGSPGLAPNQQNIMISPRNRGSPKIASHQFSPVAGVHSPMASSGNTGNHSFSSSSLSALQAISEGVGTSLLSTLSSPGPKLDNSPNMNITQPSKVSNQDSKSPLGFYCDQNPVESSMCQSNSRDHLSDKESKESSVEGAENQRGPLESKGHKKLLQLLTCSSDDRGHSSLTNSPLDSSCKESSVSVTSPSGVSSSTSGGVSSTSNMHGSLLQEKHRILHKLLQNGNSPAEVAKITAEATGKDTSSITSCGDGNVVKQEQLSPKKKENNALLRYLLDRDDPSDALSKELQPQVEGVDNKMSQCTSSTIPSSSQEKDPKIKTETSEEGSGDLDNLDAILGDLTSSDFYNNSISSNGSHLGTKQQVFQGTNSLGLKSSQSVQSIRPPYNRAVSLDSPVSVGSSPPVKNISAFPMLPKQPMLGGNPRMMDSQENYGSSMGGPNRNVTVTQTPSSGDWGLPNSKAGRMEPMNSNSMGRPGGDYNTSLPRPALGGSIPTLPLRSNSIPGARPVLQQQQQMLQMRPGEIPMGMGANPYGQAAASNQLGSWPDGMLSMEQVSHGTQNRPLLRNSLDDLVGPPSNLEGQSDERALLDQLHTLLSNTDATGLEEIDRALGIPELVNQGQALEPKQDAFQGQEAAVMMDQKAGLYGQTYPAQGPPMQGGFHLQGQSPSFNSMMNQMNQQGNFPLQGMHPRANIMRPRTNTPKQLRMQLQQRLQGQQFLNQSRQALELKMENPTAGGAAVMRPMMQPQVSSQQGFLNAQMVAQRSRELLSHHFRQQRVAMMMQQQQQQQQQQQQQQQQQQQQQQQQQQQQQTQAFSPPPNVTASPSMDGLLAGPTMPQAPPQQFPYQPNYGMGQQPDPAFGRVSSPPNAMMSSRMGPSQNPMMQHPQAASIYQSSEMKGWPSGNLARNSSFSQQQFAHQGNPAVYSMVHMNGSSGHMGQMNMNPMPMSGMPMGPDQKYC
Sequence of Heat shock cognate 71 kDa protein (P11142 whole entry): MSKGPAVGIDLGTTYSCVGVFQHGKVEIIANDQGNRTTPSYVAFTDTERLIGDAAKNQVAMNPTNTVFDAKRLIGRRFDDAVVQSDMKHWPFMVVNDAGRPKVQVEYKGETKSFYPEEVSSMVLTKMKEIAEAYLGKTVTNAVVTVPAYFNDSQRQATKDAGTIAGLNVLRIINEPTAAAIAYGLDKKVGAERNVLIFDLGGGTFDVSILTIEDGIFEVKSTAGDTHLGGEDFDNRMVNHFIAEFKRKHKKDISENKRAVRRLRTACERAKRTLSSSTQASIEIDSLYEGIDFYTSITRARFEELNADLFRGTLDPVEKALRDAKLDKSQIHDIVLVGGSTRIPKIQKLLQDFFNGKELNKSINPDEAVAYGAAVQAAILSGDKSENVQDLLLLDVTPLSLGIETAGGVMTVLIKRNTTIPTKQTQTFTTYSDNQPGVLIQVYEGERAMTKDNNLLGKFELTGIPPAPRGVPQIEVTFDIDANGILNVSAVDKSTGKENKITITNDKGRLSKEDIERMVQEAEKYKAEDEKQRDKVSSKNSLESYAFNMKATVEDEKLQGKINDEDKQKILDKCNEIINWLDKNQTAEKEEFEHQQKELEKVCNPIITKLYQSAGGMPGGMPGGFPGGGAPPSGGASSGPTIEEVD

With `CCOc1ccc(NC(=O)c2c(NC(=O)CN3CCN(C)CC3)sc3c2CCC3)cc1` the IC50 (Vero) was 18.3 µM (active).
For `Cc1ccc(Cl)cc1-n1ncc2c(NNC(=O)c3ccco3)ncnc21`, the EC50 [1] was 63.2 µM (not active).
With `O=C1NC(=S)NC(=O)C1=NNc1ccc2c(c1)OCCO2` the CC50 [2] was > 40 µM (active).
With `CCOC(=O)CS(=O)(=O)c1ccc(O)cc1` the EC50 [3] was > 79.4 µM (not active), the EC50 [4] was > 79.4 µM (not active) and the EC50 [5] was > 79.4 µM (not active).
In the case of `CCCCCC(=O)NC(=S)Nc1ccc(Br)cc1C`, the IC50 [6] is reported as 6.11 µM (active) and the IC50 [7] is reported as 7.66 µM (active).
With `O=C(c1ccc(Cl)c(S(=O)(=O)N2CCCCCC2)c1)N1CCCCC1` the IC50 [8] was 32.7 µM (not active).
With `Cc1cccc(CSC2=NCCN2C(=O)c2ccc(Br)o2)c1` the IC50 [6] was 12.8 µM (not active) and the IC50 [7] was < 12 µM (not active).
With `CCCCCOc1ccc(/C=c2\sc3nc(=O)c(-c4ccccc4)nn3c2=O)cc1OC` the IC50 (NS3) was > 36.3 µM (not active).
For `CC1(C)Cc2c(C#N)c(NCCc3ccccc3)nc(-c3ccco3)c2CO1`, the IC50 (NS3) was 35.3 µM (not active).
In the case of `COc1ccc(C(=O)Nn2c(SCC(=O)N3CCC(C)CC3)nc3ccccc3c2=O)cc1`, the EC50 (HT-1080) is reported as > 50 µM (not active) and the EC50 [9] is reported as < 0.2 µM (active).
In the case of `O=C(O)C(O)c1ccccc1` (centres undefined) [MANDELIC ACID], the IC50 [10] is reported as > 100 µM (not active), the IC50 [11] is reported as > 100 µM (not active) and the IC50 [12] is reported as > 100 µM (inactive). For the same compound, the IC50 [13] was > 100 µM (not active), the IC50 [14] was > 100 µM (inactive) and the IC50 [15] was > 100 µM (not active).
In the case of `O=C(Nc1sc2c(c1C(=O)O)CCCCC2)c1ccccc1`, the IC50 [16] is reported as 28.4 µM (active).
With `Cn1c(=O)c2c(nc(N/N=C/c3ccc(OC(=O)c4ccco4)cc3)n2Cc2ccccc2)n(C)c1=O` the EC50 [1] was > 100 µM (not active).
For `Cc1cc(/C=C2/NC(=O)N(Cc3ccccc3F)C2=O)c(C)n1C`, the EC50 [3] was > 79.4 µM (not active), the EC50 [4] was > 79.4 µM (not active) and the EC50 [5] was > 79.4 µM (not active).
For `O=C(CSc1nnc[nH]1)NCCOc1ccccc1`, the IC50 [11] was > 100 µM (not active), the IC50 [13] was > 100 µM (not active) and the IC50 [15] was > 100 µM (not active). For the same compound, the IC50 [17] was 28.8 µM (active).
In the case of `CN(C(=O)c1ccco1)c1nc2c(s1)CCCC2`, the EC50 (HT-1080) is reported as > 50 µM (not active) and the EC50 [9] is reported as > 100 µM (not active).
For `Cc1ccccc1OCC(=O)N/N=C/c1cccc(Oc2ccc([N+](=O)[O-])cc2[N+](=O)[O-])c1`, the CC50 [2] was 33.9 µM (active).
With `CCN(CC)CCN1C(=O)C(O)=C(C(=O)c2cc3ccccc3o2)C1c1cccnc1` (centres undefined) the IC50 [18] was > 39.8 µM (not active) and the IC50 [19] was 2.95 µM (active).
For `COc1ccccc1-c1cc(C(=O)N2CCc3ccccc3C2)c2ccccc2n1`, the EC50 [20] was 3.06 µM (active) and the IC50 [16] was 28.8 µM (active).
For `CN1CCc2nc3sc(C(=O)C45CC6CC(CC(C6)C4)C5)c(N)c3cc2C1`, the AC50 [21] was 1.82 µM (active), the EC50 [22] was 27.4 µM (active) and the EC50 [23] was 20.5 µM (active). The IC50 [24] was 13.8 µM (not active).
In the case of `O=C1C(/C=N/Cc2cccnc2)=C(O)c2ccccc21`, the IC50 [25] is reported as 32.1 µM (not active).
In the case of `CCN(CC)CCC(c1cc(OC)c(OC)c(OC)c1)c1c(OC)cc(OC)c2c(-c3ccccc3)cc(=O)oc12` (centres undefined), the IC50 [26] is reported as > 20 µM (inactive) and the IC50 (Vero) is reported as 30.8 µM (active).

From ChEMBL document CHEMBL1201862, “PubChem BioAssay data set” (2004)
